Assay results: the NIST ThermoML archive (doi:10.1016/j.jct.2018.09.010)

Test: relative permittivity at various frequencies (dimensionless); xn = mol fraction of the nth substance listed
Conditions: Gas, Frequency=385 MHz, Reentrant cavity resonator

[C-]#[O+] [carbon monoxide] + O=C=O
Conditions | relative permittivity
255.04 K, 1972.8 kPa, x1 = 0.7493 | 1.01697
255.04 K, 3976.6 kPa, x1 = 0.7493 | 1.03607
255.05 K, 3004.5 kPa, x1 = 0.4959 | 1.03119
255.05 K, 5999.5 kPa, x1 = 0.7493 | 1.05751
255.06 K, 1479.4 kPa, x1 = 0.4959 | 1.01417
255.06 K, 1511.8 kPa, x1 = 0.4959 | 1.01451
255.06 K, 2026.5 kPa, x1 = 0.7493 | 1.01747
255.06 K, 3003.3 kPa, x1 = 0.4959 | 1.03118
255.06 K, 4001.7 kPa, x1 = 0.4959 | 1.04416
255.06 K, 5990.8 kPa, x1 = 0.7493 | 1.05742
255.06 K, 7992.1 kPa, x1 = 0.7493 | 1.08067
273.14 K, 1964 kPa, x1 = 0.7493 | 1.01551
273.14 K, 3995.6 kPa, x1 = 0.7493 | 1.03288
273.14 K, 5997.2 kPa, x1 = 0.7493 | 1.05136
273.15 K, 2016.4 kPa, x1 = 0.7493 | 1.01594
273.15 K, 4009 kPa, x1 = 0.7493 | 1.033
273.15 K, 5997.2 kPa, x1 = 0.7493 | 1.05135
273.15 K, 7991.2 kPa, x1 = 0.7493 | 1.07098
273.2 K, 1454.1 kPa, x1 = 0.4959 | 1.01273
273.2 K, 2480.8 kPa, x1 = 0.4959 | 1.02261
273.2 K, 4502 kPa, x1 = 0.4959 | 1.0448
273.2 K, 5505.6 kPa, x1 = 0.4959 | 1.05746
273.21 K, 3471.2 kPa, x1 = 0.4959 | 1.03299
293.23 K, 1980.8 kPa, x1 = 0.7493 | 1.0144
293.23 K, 3995.9 kPa, x1 = 0.7493 | 1.02993
293.23 K, 4015.8 kPa, x1 = 0.7493 | 1.0301
293.23 K, 6011.2 kPa, x1 = 0.7493 | 1.04635
293.23 K, 6015 kPa, x1 = 0.7493 | 1.04638
293.23 K, 8001.1 kPa, x1 = 0.7493 | 1.0633
293.24 K, 2023.8 kPa, x1 = 0.7493 | 1.01472
293.25 K, 2039.7 kPa, x1 = 0.4959 | 1.0167
293.25 K, 3988.8 kPa, x1 = 0.4959 | 1.03469
293.25 K, 4025.1 kPa, x1 = 0.4959 | 1.03504
293.25 K, 5986 kPa, x1 = 0.4959 | 1.05557
293.26 K, 1975.2 kPa, x1 = 0.4959 | 1.01614
293.26 K, 6541.1 kPa, x1 = 0.4959 | 1.06185
313.26 K, 1937.1 kPa, x1 = 0.4959 | 1.01462
313.26 K, 2024.1 kPa, x1 = 0.4959 | 1.0153
313.26 K, 5954.7 kPa, x1 = 0.4959 | 1.04939
313.26 K, 6218.2 kPa, x1 = 0.4959 | 1.0519
313.27 K, 4013.4 kPa, x1 = 0.4959 | 1.03178
313.28 K, 1974.2 kPa, x1 = 0.7493 | 1.01333
313.28 K, 2022.8 kPa, x1 = 0.7493 | 1.01367
313.28 K, 3992.7 kPa, x1 = 0.7493 | 1.02755
313.28 K, 5954.9 kPa, x1 = 0.7493 | 1.04192
313.28 K, 7996.5 kPa, x1 = 0.7493 | 1.05736
313.29 K, 6015.3 kPa, x1 = 0.7493 | 1.04237
